What is called aqueous solubility is how much of the substance goes into solution per volume.

Converted amounts (≈) assume the structure as drawn. Bounds are passed on as bounds.

The conditions of the data set: for aqueous solubility: pH 6.8.

As for `CCN(C(=O)N1CCC(CC(=O)N2CCN(C)CC2)CC1)C(C)C`, the MDR1-MDCK efflux ratio came to 16.2; the intrinsic clearance, human liver microsomes is 23.9 mL/min/kg; the intrinsic clearance, rat liver microsomes was determined as 54.7 mL/min/kg; the aqueous solubility turned out to be 81.3 µg/mL (≈ 240 µM).
Turning to `CC(C(=O)Nc1ccccc1)N1CCCC(c2nc3ccccc3o2)C1` (centres undefined), the MDR1-MDCK efflux ratio was 0.831; the intrinsic clearance, rat liver microsomes was 3000 mL/min/kg; the aqueous solubility was 26.9 µg/mL (≈ 76.8 µM).
With `CCc1sc(N)nc1-c1ccc(OC)cc1`, the MDR1-MDCK efflux ratio is 0.563; the intrinsic clearance, human liver microsomes is 185 mL/min/kg; the intrinsic clearance, rat liver microsomes was 491 mL/min/kg.
For the molecule `[2H]C([2H])([2H])NC(=O)c1nnc(NC(=O)C2CC2)cc1Nc1cccc(-c2ncn(C)n2)c1OC`, the MDR1-MDCK efflux ratio stood at 114; the fraction unbound, human plasma was determined as 0.154; the fraction unbound, rat plasma came out at 0.172; the intrinsic clearance, human liver microsomes was at most 4.74 mL/min/kg. In addition, the intrinsic clearance, rat liver microsomes amounted to 26.1 mL/min/kg and the aqueous solubility turned out to be 17 µg/mL (≈ 39.9 µM).
Turning to `Nc1ccc(CC(=O)Nc2ccccc2F)cc1`, the MDR1-MDCK efflux ratio came to 0.66; the intrinsic clearance, human liver microsomes is at most 4.74 mL/min/kg; the intrinsic clearance, rat liver microsomes was at most 10.7 mL/min/kg; the aqueous solubility was 54 µg/mL (≈ 221 µM).
The matching figures for `CC(C)(C)C(=O)N1CCN(C(=O)CCN2CCOC2=O)CC1`: 64.9, at most 4.74 mL/min/kg, at most 10.7 mL/min/kg and 62.7 µg/mL (≈ 201 µM).
The matching figures for `CCCc1cc(N2CCc3c(nc(C(C)C)n3C)C2)n2ncnc2n1`: 15.2, 14.3 mL/min/kg, 183 mL/min/kg and 56.4 µg/mL (≈ 166 µM).
On to `CNc1ccc(/C=C/C=C/c2nc3ccc(O)cc3s2)cn1`, for which the aqueous solubility was determined as 0.22 µg/mL (≈ 0.711 µM).
`O=C(c1ccccc1-n1cccn1)N1CCN(Cc2cccnc2)CC1`: the MDR1-MDCK efflux ratio is 19.3; the intrinsic clearance, human liver microsomes was 56 mL/min/kg; the intrinsic clearance, rat liver microsomes was 605 mL/min/kg; the aqueous solubility was found to be 54.4 µg/mL (≈ 157 µM).
Turning to `Cc1noc(NCc2c(C)nn(C)c2C)n1`, the MDR1-MDCK efflux ratio was 1.34; the intrinsic clearance, human liver microsomes was at most 4.74 mL/min/kg; the intrinsic clearance, rat liver microsomes was at most 10.7 mL/min/kg.
`Cc1ccsc1-c1nc(CN(C)CCc2cn[nH]c2)c(C)o1` came in with an intrinsic clearance, human liver microsomes of 185 mL/min/kg; an intrinsic clearance, rat liver microsomes of 1210 mL/min/kg; an aqueous solubility of 55.7 µg/mL (≈ 176 µM).
For the molecule `CCc1nnc(N2CCCO2)c(C#N)c1CC`, the MDR1-MDCK efflux ratio is 0.746; the intrinsic clearance, human liver microsomes stood at 16.6 mL/min/kg; the intrinsic clearance, rat liver microsomes came to 147 mL/min/kg.
On to `Cc1cccc(NCCc2cn3c(n2)CCCC3)n1`, for which the MDR1-MDCK efflux ratio worked out at 3.58; the intrinsic clearance, human liver microsomes is at most 4.74 mL/min/kg; the intrinsic clearance, rat liver microsomes came to 971 mL/min/kg; the aqueous solubility turned out to be 31 µg/mL (≈ 121 µM).
In the case of `Cc1c(C(=O)Nc2ccc(CO)cc2)nnn1Cc1ccc(Cl)c(Cl)c1`, the MDR1-MDCK efflux ratio turned out to be 0.564; the intrinsic clearance, human liver microsomes was 5.12 mL/min/kg; the intrinsic clearance, rat liver microsomes worked out at 50.8 mL/min/kg.
In turn, `Cc1cc(C(=O)O)c2ccc(F)cc2n1` came in with an aqueous solubility of 24.8 µg/mL (≈ 121 µM).
On to `CCNC(=O)N1CCC(c2nc(-c3ccccc3)no2)CC1`, for which the MDR1-MDCK efflux ratio amounted to 0.841; the intrinsic clearance, human liver microsomes is at most 4.74 mL/min/kg; the intrinsic clearance, rat liver microsomes turned out to be 44.8 mL/min/kg; the aqueous solubility was 52.8 µg/mL (≈ 176 µM).
The matching figures for `OCc1ccc(Cn2cc(-c3cc(F)ccc3-n3cccn3)nn2)cc1`: 2.09, 15.5 mL/min/kg, 114 mL/min/kg and 34.5 µg/mL (≈ 98.9 µM).
The matching figures for `Cc1cc(C)n2ncc(C(=O)Nc3cccc(C(=O)O)c3)c2n1`: 0.709, at most 4.74 mL/min/kg, at most 10.7 mL/min/kg and 17.6 µg/mL (≈ 56.7 µM).
In the case of `O=c1c(-c2ccc(F)cc2)c(-c2ccncc2)[nH]n1-c1ccc(Cl)cc1`, the MDR1-MDCK efflux ratio came to 1.46; the intrinsic clearance, human liver microsomes was at most 4.74 mL/min/kg; the intrinsic clearance, rat liver microsomes was at most 10.7 mL/min/kg; the aqueous solubility amounted to 21.8 µg/mL (≈ 59.6 µM).
The matching figures for `Cc1cc(C(=O)N(C)C2CCC2)n2nccc2n1`: 0.719, at most 4.74 mL/min/kg, at most 10.7 mL/min/kg and 90.9 µg/mL (≈ 372 µM).
For `O=C(Cn1nc2n(c1=O)-c1ccccc1C1=NCCN12)N1CCc2ccccc21`, the MDR1-MDCK efflux ratio came to 22.4 and the aqueous solubility came out at 5.79 µg/mL (≈ 15 µM).
Regarding `Cc1oc(C)c(C(=O)N(C)Cc2ccccc2N2CCOCC2)c1C`, the MDR1-MDCK efflux ratio was determined as 1.58; the intrinsic clearance, human liver microsomes was 916 mL/min/kg; the intrinsic clearance, rat liver microsomes was 5800 mL/min/kg; the aqueous solubility is 61.8 µg/mL (≈ 180 µM).
As for `CC(C)c1cc(N2CCc3[nH]nc(C4CC4)c3C2)n2nccc2n1`, the MDR1-MDCK efflux ratio was 6.42; the intrinsic clearance, human liver microsomes was 70.4 mL/min/kg; the intrinsic clearance, rat liver microsomes was found to be 381 mL/min/kg; the aqueous solubility amounted to 23.8 µg/mL (≈ 73.7 µM).
Take `CN(Cc1ccc(N)nc1)c1nc2cc(F)ccc2o1`: the MDR1-MDCK efflux ratio amounted to 33.5; the intrinsic clearance, human liver microsomes was at most 4.74 mL/min/kg; the intrinsic clearance, rat liver microsomes came to 58.1 mL/min/kg.
For `CC(=O)NC1CCC(NCCc2c(C)cccc2C)CC1` (centres undefined), in that order: 19.8, at most 4.74 mL/min/kg and 1140 mL/min/kg.
As for `CC(=O)NC[C@H]1C[C@]2(C)[C@@H](CCCC[C@]2(C)O)N1CC1(O)CCOCC1`, the MDR1-MDCK efflux ratio is 9.46; the intrinsic clearance, human liver microsomes is 8.98 mL/min/kg; the intrinsic clearance, rat liver microsomes turned out to be 41.2 mL/min/kg.
`CCn1nccc1CNc1nnc(-c2ccc(OC)cc2)o1`: the MDR1-MDCK efflux ratio was 1.89; the intrinsic clearance, human liver microsomes was 6.62 mL/min/kg; the intrinsic clearance, rat liver microsomes is 76.2 mL/min/kg; the aqueous solubility stood at 27.1 µg/mL (≈ 90.6 µM).
Take `Cc1ccccc1S(=O)(=O)N[C@@H]1CC[C@@H](O)[C@@H]1O`: the intrinsic clearance, human liver microsomes is at most 4.74 mL/min/kg and the intrinsic clearance, rat liver microsomes came out at 17.7 mL/min/kg.
With `CC(=O)N(C)[C@H]1CC2(CCN(C(=O)COc3ccc(F)cc3F)CC2)OC[C@]1(C)O`, the MDR1-MDCK efflux ratio came to 14.9; the intrinsic clearance, human liver microsomes was at most 4.74 mL/min/kg; the intrinsic clearance, rat liver microsomes amounted to 15.4 mL/min/kg.
Consider `N#Cc1cccc(NC(=O)C2CCC2)c1`, for which the aqueous solubility amounted to 33.8 µg/mL (≈ 169 µM).
For the molecule `Cn1c(CNc2ccc(C(=N)N)cc2)nc2cc(C(=O)N(CCC(=O)O)c3ccccn3)ccc21`, the MDR1-MDCK efflux ratio was determined as 0.503; the intrinsic clearance, human liver microsomes was at most 4.74 mL/min/kg; the intrinsic clearance, rat liver microsomes is at most 10.7 mL/min/kg; the aqueous solubility was 4.91 µg/mL (≈ 10.4 µM).
The molecule `Cn1c(NC(=O)c2ccn(COc3ccccc3)n2)nc2ccccc21` had an aqueous solubility of 5.8 µg/mL (≈ 16.7 µM).
Take `CSc1ccc(CN(CCO)C(=O)CCc2cccc(F)c2)cc1`: the MDR1-MDCK efflux ratio amounted to 0.961; the intrinsic clearance, human liver microsomes was 151 mL/min/kg; the intrinsic clearance, rat liver microsomes worked out at 2520 mL/min/kg; the aqueous solubility was determined as 29.1 µg/mL (≈ 83.6 µM).
In the case of `N#C/C(=C\c1ccc(O)c(O)c1)C(=O)NCc1ccccc1`, the aqueous solubility was determined as 42.5 µg/mL (≈ 145 µM).
Same read-out and setting: the result for `Cc1cc(C)cc(NC(=O)COC(=O)c2nn(C)c(=O)c3ccccc23)c1` reads 0.97 µg/mL (≈ 2.65 µM).
As to `CN(C)c1ccc(C(=O)N2CCN3C(=O)N(Cc4ccccc4)C(=O)[C@H]3C2)cc1`, the MDR1-MDCK efflux ratio came to 1.61; the intrinsic clearance, human liver microsomes came to 30 mL/min/kg; the intrinsic clearance, rat liver microsomes stood at 389 mL/min/kg; the aqueous solubility amounted to 13.6 µg/mL (≈ 34.7 µM).
For the molecule `O=C(NCc1cccnc1)c1sccc1-c1ccccc1`, the MDR1-MDCK efflux ratio was 1.1; the intrinsic clearance, human liver microsomes is 45.2 mL/min/kg; the intrinsic clearance, rat liver microsomes was determined as 867 mL/min/kg; the aqueous solubility came out at 65.6 µg/mL (≈ 223 µM).
Regarding `O=C(NCc1cccs1)c1cccnc1`, the MDR1-MDCK efflux ratio worked out at 0.62; the intrinsic clearance, human liver microsomes was at most 4.74 mL/min/kg; the intrinsic clearance, rat liver microsomes is at most 10.7 mL/min/kg.
`CCc1ccc(NC(=O)C2CCN(c3ccc4nncn4n3)CC2)cc1`: the MDR1-MDCK efflux ratio was 13.6; the intrinsic clearance, human liver microsomes worked out at 4.86 mL/min/kg; the intrinsic clearance, rat liver microsomes came out at 34.6 mL/min/kg; the aqueous solubility came out at 1.15 µg/mL (≈ 3.28 µM).
For `Cc1ccc([C@@H]2N[C@@H](Cc3ccccc3)C(=O)N2C)o1`, in that order: 0.764, at most 4.74 mL/min/kg, 151 mL/min/kg and 53.3 µg/mL (≈ 197 µM).
In the case of `Cc1cc(Nc2cnccn2)cc(C2CCCN(CC(=O)N3CCCC3)C2)n1` (centres undefined), the MDR1-MDCK efflux ratio stood at 26.7; the fraction unbound, human plasma was 0.439; the fraction unbound, rat plasma is 0.429; the intrinsic clearance, human liver microsomes was 5.43 mL/min/kg. This molecule also came in with an intrinsic clearance, rat liver microsomes of 98.6 mL/min/kg.
As to `COc1cc(OCc2ccccn2)ccc1/C=C/c1cc(/C=C/c2ccc3cc[nH]c3c2)[nH]n1`, the aqueous solubility was determined as 0.61 µg/mL (≈ 1.36 µM).
The molecule `CNc1ncc2cc(-c3ccc(-c4cccc(C)n4)cc3Cl)c(=O)n(C[C@H]3OC[C@H](N)CO3)c2n1` showed an intrinsic clearance, human liver microsomes of at most 4.74 mL/min/kg and an intrinsic clearance, rat liver microsomes of 170 mL/min/kg.
For `COc1ccc(CN2CCC(c3nc(C(C)C)no3)CC2)c(F)c1`, the MDR1-MDCK efflux ratio worked out at 0.777; the intrinsic clearance, human liver microsomes turned out to be 35 mL/min/kg; the intrinsic clearance, rat liver microsomes was determined as 1710 mL/min/kg; the aqueous solubility turned out to be 47.1 µg/mL (≈ 141 µM).
Turning to `c1cnc(NCCc2cccc3cccnc23)nc1`, the intrinsic clearance, human liver microsomes came to 105 mL/min/kg; the intrinsic clearance, rat liver microsomes came to 879 mL/min/kg; the aqueous solubility was determined as 37 µg/mL (≈ 148 µM).
With `COc1cc(C#N)ccc1Oc1nc2ccccc2o1`, the aqueous solubility is 8.7 µg/mL (≈ 32.7 µM).
With `Cc1nnc(-c2ccccc2-c2c[nH]nc2C)s1`, the aqueous solubility was 30.9 µg/mL (≈ 121 µM).
In the case of `COC[C@@H](O)Cn1c(C)nc2ccccc21`, the MDR1-MDCK efflux ratio turned out to be 1.43; the intrinsic clearance, human liver microsomes is at most 4.74 mL/min/kg; the intrinsic clearance, rat liver microsomes is at most 10.7 mL/min/kg.

The record behind these values is the Biogen ADME set (Fang et al. 2023).
